From PMC10141580, “Cyclic Dichalcogenides Extend the Reach of Bioreductive Prodrugs to Harness Thiol/Disulfide Oxidoreductases: Applications to seco-Duocarmycins Targeting the Thioredoxin System” (ACS Central Science, 2023)
Read-outs that look alike come from different tables or passages of the source.

System: panel of 140 standard cancer cell lines
Assay: ProliFiler-140 cancer cell line screen (CellTiterGlo, 72 h)
Format: cell-based
Settings: Homo sapiens
Description: Incubations were performed for 72 h before automated viability readout with CellTiterGlo (Figure 8).
End of Figure S11 (part 5 of 5): ProliFiler-140 cancer cell line screening for cytotoxicity of the prodrugs.
8-data-point dose response curves from CellTiter-Glo® viability readout.
ProliFiler-140 cell line panel part V

COc1cccc2c1C(=O)c1c(O)c3c(c(O)c1C2=O)C[C@@](O)(C(=O)CO)C[C@@H]3O[C@H]1C[C@H](N)[C@H](O)[C@H](C)O1 [doxorubicin, reference compound]
IC50 (DV-90, DV90 (Lung), read-out: IC50 [M] (ProliFiler-140)): 1.9e-08 M | IC50 (Detroit 562, Detroit562 (Head/Neck), read-out: IC50 [M] (ProliFiler-140)): 1.54e-07 M | IC50 (EFM-19, EFM-19 (Breast), read-out: IC50 [M] (ProliFiler-140)): 4.7e-07 M | IC50 (EFO-27, EFO-27 (Ovary), read-out: IC50 [M] (ProliFiler-140)): 2.9e-07 M | IC50 (EPLC-272H, EPLC-272H (Lung), read-out: IC50 [M] (ProliFiler-140)): 1.97e-07 M | IC50 (HCC38, HCC38 (Breast), read-out: IC50 [M] (ProliFiler-140)): 5.21e-08 M | IC50 (HCC827, HCC827 (Lung), read-out: IC50 [M] (ProliFiler-140)): 3.5e-07 M | IC50 (HCC1569, HCC 1569 (Breast), read-out: IC50 [M] (ProliFiler-140)): 7e-07 M | IC50 (HCT-15, HCT-15 (Colon), read-out: IC50 [M] (ProliFiler-140)): 6.43e-07 M | IC50 (HCT-116, HCT116 (Colon), read-out: IC50 [M] (ProliFiler-140)): 1.07e-07 M | IC50 (HCT-116, HCT116, read-out: IC50): 1.1e-07 M | IC50 (HEC-1-A, HEC-1-A (Endometrium), read-out: IC50 [M] (ProliFiler-140)): 3.3e-07 M | IC50 (HEC-1B, HEC-1-B (Endometrium), read-out: IC50 [M] (ProliFiler-140)): 2.4e-06 M | IC50 (HL-60, HL-60 (Blood), read-out: IC50 [M] (ProliFiler-140)): 2.6e-08 M | IC50 (HL-60, HL-60, read-out: IC50): 2.6e-08 M | IC50 (HT-29, HT-29 (Colon), read-out: IC50 [M] (ProliFiler-140)): 3.7e-07 M | IC50 (HT-29, HT-29, read-out: IC50): 3.7e-07 M | IC50 (HT-1080, HT-1080 (Fibrosarcoma), read-out: IC50 [M] (ProliFiler-140)): 7.6e-08 M | IC50 (HeLa, HeLa (Cervix), read-out: IC50 [M] (ProliFiler-140)): 8.04e-08 M | IC50 (Hs746T, Hs 746T (Stomach), read-out: IC50 [M] (ProliFiler-140)): 4e-07 M | IC50 (HuTu80, Hutu 80 (Duodenum), read-out: IC50 [M] (ProliFiler-140)): 1.87e-08 M | IC50 (Huh-7, HuH7 (Liver), read-out: IC50 [M] (ProliFiler-140)): 2.1e-07 M | IC50 (Ishikawa, Ishikawa (Endometrium), read-out: IC50 [M] (ProliFiler-140)): 7.7e-08 M | IC50 (JIMT-1, JIMT-1 (Breast), read-out: IC50 [M] (ProliFiler-140)): 1.3e-06 M | IC50 (JVM-3, JVM-3 (Blood), read-out: IC50 [M] (ProliFiler-140)): 3e-08 M | IC50 (Jurkat, Jurkat (Blood), read-out: IC50 [M] (ProliFiler-140)): 4.01e-08 M | IC50 (K562, K562 (Blood), read-out: IC50 [M] (ProliFiler-140)): 4.4e-07 M | IC50 (KARPAS-299, KARPAS 299 (Blood), read-out: IC50 [M] (ProliFiler-140)): 7.32e-08 M | IC50 (KATO III, Kato III (Stomach), read-out: IC50 [M] (ProliFiler-140)): 9e-07 M | IC50 (KG-1a, KG-1 a (Blood), read-out: IC50 [M] (ProliFiler-140)): 4.91e-07 M | IC50 (KMS-12-BM, KMS-12-BM (Blood), read-out: IC50 [M] (ProliFiler-140)): 1.65e-07 M | IC50 (LN-229, LN229 (Brain), read-out: IC50 [M] (ProliFiler-140)): 2.16e-07 M | IC50 (LNCaP, LnCap (Prostate), read-out: IC50 [M] (ProliFiler-140)): 1.9e-07 M | IC50 (LoVo, LOVO (Colon), read-out: IC50 [M] (ProliFiler-140)): 1.11e-07 M | IC50 (MDA-MB-435, MDA MB 435 (Skin), read-out: IC50 [M] (ProliFiler-140)): 4.8e-07 M | IC50 (MDA-MB-468, MDA-MB-468 (Breast), read-out: IC50 [M] (ProliFiler-140)): 4.7e-08 M | IC50 (MEC1, MEC-1 (Blood), read-out: IC50 [M] (ProliFiler-140)): 7.3e-08 M | IC50 (MIA PaCa-2, Mia PaCA 2 (Pancreas), read-out: IC50 [M] (ProliFiler-140)): 7.37e-08 M | IC50 (MKN-1, MKN-1 (Stomach), read-out: IC50 [M] (ProliFiler-140)): 5.2e-08 M | IC50 (MKN-45, MKN-45 (Stomach), read-out: IC50 [M] (ProliFiler-140)): 3.16e-07 M | IC50 (MOLM-13, MOLM-13 (Blood), read-out: IC50 [M] (ProliFiler-140)): 2.1e-08 M | IC50 (MOLT-4, MOLT-4 (Blood), read-out: IC50 [M] (ProliFiler-140)): 2.6e-08 M | IC50 (MOLT-4, MOLT-4, read-out: IC50): 2.6e-08 M | IC50 (MV4-11, MV4-11 (Blood), read-out: IC50 [M] (ProliFiler-140)): 4.3e-09 M | IC50 (NALM-6, NALM-6 (Blood), read-out: IC50 [M] (ProliFiler-140)): 2.3e-08 M | IC50 (NCI-H82, NCI-H82 (Lung), read-out: IC50 [M] (ProliFiler-140)): 6.2e-07 M | IC50 (NCI-H292, NCI-H292 (Lung), read-out: IC50 [M] (ProliFiler-140)): 7.2e-08 M | IC50 (NCI-H441, NCI-H441 (Lung), read-out: IC50 [M] (ProliFiler-140)): 3.49e-07 M | IC50 (NCI-H460, H460 (Lung), read-out: IC50 [M] (ProliFiler-140)): 2.6e-08 M | IC50 (NCI-H838, NCI-H838 (Lung), read-out: IC50 [M] (ProliFiler-140)): 1.5e-07 M | IC50 (NCI-H1048, NCI-H1048 (Lung), read-out: IC50 [M] (ProliFiler-140)): 3.2e-08 M | IC50 (NCI-H1299, H1299 (Lung), read-out: IC50 [M] (ProliFiler-140)): 2.23e-07 M | IC50 (NCI-H1437, NCI-H1437 (Lung), read-out: IC50 [M] (ProliFiler-140)): 1.39e-07 M | IC50 (NCI-H1563, NCI-H1563 (Lung), read-out: IC50 [M] (ProliFiler-140)): 5.4e-07 M | IC50 (NCI-H1573, NCI-H1573 (Lung), read-out: IC50 [M] (ProliFiler-140)): 3e-06 M | IC50 (NCI-H1581, NCI-H1581 (Lung), read-out: IC50 [M] (ProliFiler-140)): 1.47e-07 M | IC50 (NCI-H1703, NCI-H1703 (Lung), read-out: IC50 [M] (ProliFiler-140)): 9.2e-08 M | IC50 (NCI-H1838, NCI-H1838 (Lung), read-out: IC50 [M] (ProliFiler-140)): 2.5e-07 M
